# Literature values in patent US9662322B2 (TEVA PHARMACEUTICAL INDUSTRIES, LTD., priority 2014, dated 2017).
# Details: cited from earlier work
smiles,measurement,value
CCN(C(=O)c1c(O)c2c(Cl)cccc2n(C)c1=O)c1ccccc1 [Laquinimod sodium],Oral bioavailability,high
